Source: publication PMC5833749 (Cell Death & Disease, 2018)
“And” between values parts separate entries of the source, which are not always exact repeats. Equal entries are not always repeated. “Also recorded” adds a separate entry of the source. Where two headings read alike, the source gives them in different places.

Assays:
L929sAhFas cells [1] = test: Cellular screening of Tozasertib analogues for cytokinesis defects and inhibition of necroptosis; format: cell-based, murine; settings: 3 µM, 0.5 h or 24 h pre-treatment
Protocol: Next, cells were left unstimulated or stimulated with mTNF (40 ng/mL) + zVAD.fmk (10 µM) for […]. Proliferation, nuclear area and cell death were quantified by staining the cells with propidium iodide (PI) (3 µM) and Hoechst (1 µM) for image analysis with BD pathway. […] Significance was analysed using repeated measurements data analysis. […] Cells were stimulated for 7 h with mTNF and 4 h with mTNF + zVAD.fmk. Data represent mean values ±S.E.M. (n = 2). […] Dose responses were included in the screening (b–c) assay conditions.
(§1) Data were analysed using the Columbus software package (PerkinElmer).

L929sAhFas cells [2] = test: mTNF-induced RIPK1-dependent necroptosis; format: cell-based, murine
Protocol: (§2) Data represent mean values ±S.E.M., n = 6. […] Data represent mean values ±S.E.M. (g–l).
as §1

L929sAhFas cells [3] = test: High-content imaging of cell growth, nuclear area and nuclear roundness (cytokinesis defects); format: cell-based, murine; settings: for Cytokinesis defects (nuclear roundness, nuclear area): 10 µM, 24 h
Protocol: as §2, §1

hAurora kinase B = biological target: T1, hAurora kinase B (Homo sapiens, UniProt Q96GD4); test: In vitro ADP-Glo kinase assay; format: biochemical; settings: dose response, Fig. 3c
T1 construct: purchased Promega V9181
T1 sequence (Q96GD4 whole entry): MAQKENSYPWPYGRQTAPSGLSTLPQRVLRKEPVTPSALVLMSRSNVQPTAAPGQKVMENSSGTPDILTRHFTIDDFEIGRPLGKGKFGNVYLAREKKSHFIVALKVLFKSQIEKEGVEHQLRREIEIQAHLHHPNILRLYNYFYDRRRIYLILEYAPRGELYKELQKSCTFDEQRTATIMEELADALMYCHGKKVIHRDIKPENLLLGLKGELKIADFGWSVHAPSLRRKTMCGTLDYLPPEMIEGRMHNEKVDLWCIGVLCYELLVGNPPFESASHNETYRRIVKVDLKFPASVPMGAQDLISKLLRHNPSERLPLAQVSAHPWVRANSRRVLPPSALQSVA
Protocol: (§3) Compounds (concentrations as indicated) were co-incubated with recombinant hRIPK1 (100 nM) (produced in our laboratory), hAurora kinase A (25 nM) or hAurora kinase B (25 nM) (ADP-Glo^TM kinase assay + Aurora A/Aurora B kinase enzyme system, Promega, V9081 and V9181). For hRIPK1, the kinase assay buffer (2×) contains 50 mM HEPES pH 7.5, 30 mM MgCl2, 50 mM NaCl, 0.5 mg/mL BSA, 0.02% CHAPS and 1 mM DTT. For the Aurora kinases, the kinase assay buffer was used from the promega assay (V9081, V9181). Next, the in vitro ADP-Glo^TM kinase assay (Promega, V6930) was used to determine kinase activity. The assay was performed according to the manufacturer’s protocol. The primary kinase reaction was carried out for 4 h at room temperature and a 2:2:1 ratio of kinase reaction volume to ADP-Glo reagent volume to kinase detection reagent volume was used.

recombinant hRIPK1 = biological target: T2, recombinant hRIPK1 (Homo sapiens, UniProt Q13546); test: In vitro ADP-Glo kinase assay; format: biochemical; settings: dose response, Fig. 3a
T2 construct: made in house
T2 sequence (Q13546 1-671): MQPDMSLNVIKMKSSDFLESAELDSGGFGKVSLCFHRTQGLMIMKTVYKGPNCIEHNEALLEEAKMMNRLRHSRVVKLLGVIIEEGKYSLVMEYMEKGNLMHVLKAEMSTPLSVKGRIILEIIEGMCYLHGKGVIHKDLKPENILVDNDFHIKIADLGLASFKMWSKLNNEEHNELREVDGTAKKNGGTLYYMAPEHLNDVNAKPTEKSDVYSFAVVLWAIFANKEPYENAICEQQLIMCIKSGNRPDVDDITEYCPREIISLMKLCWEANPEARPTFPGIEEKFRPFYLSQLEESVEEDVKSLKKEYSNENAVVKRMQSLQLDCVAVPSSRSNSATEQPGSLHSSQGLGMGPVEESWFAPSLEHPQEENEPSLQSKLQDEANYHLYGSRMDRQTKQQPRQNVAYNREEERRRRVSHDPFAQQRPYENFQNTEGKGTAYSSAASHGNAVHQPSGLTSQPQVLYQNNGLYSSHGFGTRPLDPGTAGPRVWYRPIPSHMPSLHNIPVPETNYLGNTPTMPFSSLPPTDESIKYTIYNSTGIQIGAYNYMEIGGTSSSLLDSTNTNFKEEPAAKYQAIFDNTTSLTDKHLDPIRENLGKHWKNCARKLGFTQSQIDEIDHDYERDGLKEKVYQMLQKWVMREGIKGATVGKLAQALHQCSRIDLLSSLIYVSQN
Protocol: as §3

hAurora kinase A = biological target: T3, hAurora kinase A (Homo sapiens, UniProt O14965); test: In vitro ADP-Glo kinase assay; format: biochemical; settings: dose response, Fig. 3b
T3 construct: purchased Promega V9081
T3 sequence (O14965 1-403): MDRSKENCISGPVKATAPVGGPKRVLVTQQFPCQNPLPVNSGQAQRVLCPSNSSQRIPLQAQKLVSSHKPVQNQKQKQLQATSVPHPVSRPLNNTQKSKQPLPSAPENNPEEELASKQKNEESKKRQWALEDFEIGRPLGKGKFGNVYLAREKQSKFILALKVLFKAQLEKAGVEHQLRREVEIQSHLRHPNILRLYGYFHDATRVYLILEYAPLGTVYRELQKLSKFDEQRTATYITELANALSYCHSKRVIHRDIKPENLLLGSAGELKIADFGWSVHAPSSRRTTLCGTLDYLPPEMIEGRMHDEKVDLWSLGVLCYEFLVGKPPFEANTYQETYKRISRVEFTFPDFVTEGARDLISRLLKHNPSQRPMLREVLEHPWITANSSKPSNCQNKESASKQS
Protocol: as §3

L929sAhFas cells [4] = test: mTNF+zVAD.fmk-induced necroptosis (sensitising condition)
L929sAhFas cells [5] = test: RIPK1-independent apoptosis by agonistic anti-Fas antibody; format: cell-based, murine; settings: 10 µM, pre-treated 1 h, agonistic anti-Fas antibody 250 ng/mL
[6] = system: endogenous Aurora A (Aur A) and B (Aur B); test: Immunoblot of autophosphorylation of endogenous Aurora A and B; format: cell-based, murine; settings: 10 µM, 16 h
Protocol: Then, a clonogenic assay was performed to determine colony-forming capacity. Quantification was performed using ImageJ. […] Data represent mean values ±S.E.M., n = 6. […] Data represent mean values ±S.E.M. (g–l).
Antibodies used were anti-phospho-Aurora A (Thr288)/Aurora B (Thr232)/Aurora C (Thr198) (D13A11) (Cell Signaling, #2914, Danvers, MA, USA), anti-tubulin-HRP (abcam, ab21058, Cambridge, UK). After treatments, cells were washed twice with PBS and lysed with 2× Laemmli buffer directly. These samples were used for SDS-PAGE and immunoblotting. Tubulin was used as loading control.

recombinant mRIPK3 = recombinant mRIPK3 (Mus musculus, UniProt Q9QZL0); test: In vitro ADP-Glo kinase assay; format: biochemical; settings: 10 µM; mRIPK3 15 nM
Sequence of recombinant mRIPK3 (Q9QZL0 whole entry): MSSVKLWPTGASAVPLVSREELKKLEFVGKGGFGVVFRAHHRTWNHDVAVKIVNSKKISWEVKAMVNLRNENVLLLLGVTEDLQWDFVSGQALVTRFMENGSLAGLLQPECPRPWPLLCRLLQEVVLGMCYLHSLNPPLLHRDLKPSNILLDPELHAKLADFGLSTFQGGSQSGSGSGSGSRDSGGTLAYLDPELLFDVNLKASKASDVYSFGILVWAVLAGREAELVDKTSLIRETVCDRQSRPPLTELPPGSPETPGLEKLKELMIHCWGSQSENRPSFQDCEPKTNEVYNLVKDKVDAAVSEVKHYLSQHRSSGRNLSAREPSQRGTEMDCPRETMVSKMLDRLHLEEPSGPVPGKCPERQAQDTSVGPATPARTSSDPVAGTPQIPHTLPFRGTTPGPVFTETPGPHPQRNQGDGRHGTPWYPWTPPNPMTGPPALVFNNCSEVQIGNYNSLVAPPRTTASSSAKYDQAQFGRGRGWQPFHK
Protocol: Supplementary Figure 5. […] An in vitro ADP-Glo kinase assay using recombinant mRIPK3 (15 nM) (A) was performed. […] Data represent mean value ± S.E.M. of 3 independent experiment. One-way ANOVA with Tukey correction for multiple testing has been performed (**** p<0.0001 ).

MEF cells = test: RIPK1-dependent apoptosis (hTNF+Tak1i); format: cell-based, murine; settings: 10 µM, pre-treated 1 h, hTNF 20 ng/mL + Tak1i 1 µM
HT29 cells = test: hTNF+Tak1i+zVAD.fmk-induced necroptosis
L929sAhFas cells [7] = test: Cytotoxicity of the compound alone (% PI-negative cells); format: cell-based, murine; settings: 10 µM or lower, 24 h
From the text: Supplementary Figure 1. […] Data represent mean ± S.E.M. of 3 independent experiment. One-way Anova with Tukey correction for multiple testing has been performed.

L929sAhFas cells [8] = test: Clonogenic assay (colony-forming capacity); format: cell-based, murine
Protocol: […]. […] Data represent mean values ±S.E.M., n = 6. […] […]. […] Data represent mean values ±S.E.M. (g–l).
Next, treatment was removed and 50 cells/condition were seeded. After 10 days, cells were fixed with 4% PFA for 10 min. After fixation, cells were stained with a 0.01% crystal violet solution for 1 h. Cells were washed with PBS, dried overnight and images were taken. Colonies were counted using ImageJ.

[9] = Mus musculus, read-out: Necroptosis IC50, Aurora inhibitor panel, dose-response 10-0.0022 µM, pre-treated 1 h, mTNF 20 ng/mL 5 h, nonlinear regression
[10] = pre-treated 1 h, mTNF 20 ng/mL 5 h

O=C(O)c1ccc(Nc2ncc3c(n2)-c2ccc(Cl)cc2C(c2c(F)cccc2F)=NC3)cc1 [MLN-8054]
Cytokinesis and proliferation in the analogue screening (in words) (L929sAhFas cells [1]): cytokinesis inhibition | Necroptosis in the analogue screening (in words) (L929sAhFas cells [1]; mTNF 40 ng/mL + zVAD.fmk 10 µM 3 h): without affecting RIPK1-dependent cell death

O=C(Nc1cccc(Cl)c1)Nc1ncc(CCNc2ncnc3ccsc23)s1 [SNS-314]
IC50 (L929sAhFas cells [2]; [9]): 400 nM | IC50 (L929sAhFas cells [2]; read-out: Necroptosis IC50, Aurora inhibitor panel, dose-response 10-0.0022 µM, pre-treated 1 h, mTNF 20 ng/mL 5 h, nonlinear regression): 399 nM

CCN(CCCOc1ccc2c(Nc3cc(CC(=O)Nc4cccc(F)c4)n[nH]3)ncnc2c1)CCOP(=O)(O)O [Barasertib]
Inhibition of TNF-induced necroptosis by Aurora kinase inhibitors (in words) (L929sAhFas cells [2]; [10]): not able to protect

CN1C(=O)NC(Cc2c[nH]c3c(Cl)cccc23)C1=O (centres unmarked) [Nec-1s, Necrostatin-1s]
Cytokinesis defects (nuclear roundness, nuclear area) (L929sAhFas cells [3]): does not result in cytokinesis defects | Inhibition of hAur B kinase activity (in words) (hAurora kinase B): only inhibits recombinant hRIPK1 | Inhibition of hRIPK1 kinase activity (in words) (recombinant hRIPK1): only inhibits recombinant hRIPK1 | Inhibition of hAur A kinase activity (in words) (hAurora kinase A): only inhibits recombinant hRIPK1 | IC50 (L929sAhFas cells [4]; read-out: Necroptosis L929-mTNF+zVAD IC50, pre-treatment 1 h, necroptosis treatment 3 h, Probit analysis): 240 nM | IC50 (L929sAhFas cells [2]; Aurora inhibitor panel, dose-response 10-0.0022 µM, pre-treated 1 h, mTNF 20 ng/mL 5 h, nonlinear regression, read-out: Necroptosis IC50): 367 nM | IC50 (L929sAhFas cells [2]; pre-treatment 1 h, mTNF 20 ng/mL 5 h, Probit analysis, read-out: Necroptosis L929-mTNF IC50): 149 nM

Cc1csc(-c2nnc(Nc3ccc(Oc4ncccc4-c4ccnc(N)n4)cc3)c3ccccc23)c1 [AMG-900]
Inhibition of TNF-induced necroptosis by Aurora kinase inhibitors (in words) (L929sAhFas cells [2]; [10]): cannot inhibit necroptosis; also recorded: not able to protect

CO[C@@H](C(=O)N1Cc2n[nH]c(NC(=O)c3ccc(N4CCN(C)CC4)cc3)c2C1)c1ccccc1 [Danusertib]
IC50 (L929sAhFas cells [2]; [9]): 13900 nM | Inhibition of TNF-induced necroptosis by Aurora kinase inhibitors (in words) (L929sAhFas cells [2]; [10]): not able to protect

CC(C)(C)C(=O)N1N=CC[C@H]1c1ccccc1 [GSK’963]
Cytokinesis defects (nuclear roundness, nuclear area) (L929sAhFas cells [3]): did not affect cytokinesis

Cc1cc(Nc2cc(N3CCN(C)CC3)nc(Sc3ccc(NC(=O)C4CC4)cc3)n2)[nH]n1 [Tozasertib]
Inhibition of RIPK1-independent (Fas-mediated) apoptosis (L929sAhFas cells [5]): no inhibition is observed | Autophosphorylation of endogenous Aurora A and B [6]: inhibition of autophosphorylation | Mean nuclear area at highest concentration (L929sAhFas cells [3]; 48 h, highest concentration): 250 µm^2 | Mean nuclear roundness at highest concentration (L929sAhFas cells [3]; 48 h, 0 = straight line, 1 = perfect circle): 0.80 | EC50 (L929sAhFas cells [3]; Mus musculus, 48 h, read-out: Nuclear area (values represent EC50), compound treatment 48 h, Probit analysis): 554 nM | IC50 (L929sAhFas cells [3]; Mus musculus, 48 h, read-out: Nuclear roundness IC50, compound treatment 48 h, Probit analysis): 1640 nM | EC50 (L929sAhFas cells [3]; Mus musculus, read-out: Cytokinesis EC50 (nuclear area), Aurora inhibitor panel, dose-response 10-0.0022 µM, pre-treated 1 h, mTNF 20 ng/mL 5 h, nonlinear regression): 591 nM | Inhibition of recombinant mRIPK3 kinase activity (recombinant mRIPK3): does not inhibit; also recorded: not able to inhibit | Protective effect against necroptosis at 10 µM (L929sAhFas cells [4]; 10 µM, mTNF+zVAD.fmk 3 h): partially lost | Protection against necroptosis in L929sAhFas (in words) (L929sAhFas cells [4]; pre-treated 1 h, stimulation 3 h, sensitised condition (mTNF+zVAD.fmk) per text): protect against necroptosis | Protection against TNF-induced RIPK1-dependent necroptosis over time (L929sAhFas cells [2]; 3 µM, pre-treated 1 h, mTNF 20 ng/mL): protects | IC50 (L929sAhFas cells [2]; Mus musculus, L929, read-out: IC50 L929 TNF-induced necroptosis as given in the Discussion, condition not specified): 700 nM | IC50 (L929sAhFas cells [2]; read-out: Necroptosis L929-mTNF IC50, pre-treatment 1 h, mTNF 20 ng/mL 5 h, Probit analysis): 550 nM and 554 nM | Inhibition of RIPK1-dependent apoptosis (MEF cells): inhibits RIPK1-dependent apoptosis | Protective effect against necroptosis at 10 µM (HT29 cells; 10 µM, hTNF+Tak1i+zVAD.fmk 16 h): partially lost | Protection against necroptosis in HT29 (in words) (HT29 cells; pre-treated 1 h, hTNF+Tak1i+zVAD.fmk 17 h): protect against necroptosis | Toxicity of the compound on itself (L929sAhFas cells [7]): not cytotoxic; also recorded: not toxic | Concentration from which colony formation is impaired (L929sAhFas cells [8]; 24 h treatment): ≥ 0.2 µM | IC50 (L929sAhFas cells [8]; Mus musculus, 24 h, read-out: Clonogenicity IC50): 122 nM
